Reference: ChEMBL document CHEMBL4622852, “Design and synthesis of novel proline based factor XIa selective inhibitors as leads for potential new anticoagulants” (Bioorg Med Chem Lett, 2020)
Calls of active or inactive are those of the source. The calls are words filed in the database; no cut-off is given here.

Tests used:
[1] = target: T1, Coagulation factor XI (Homo sapiens, UniProt P03951); assay: Inhibition of factor 11a (unknown origin)
[2] = target: Prothrombin (Homo sapiens, UniProt P00734); assay: Inhibition of thrombin (unknown origin)
[3] = target: Coagulation factor X (Homo sapiens, UniProt P00742); assay: Inhibition of factor 10a (unknown origin)
[4] = target: T2, Coagulation factor XII (Homo sapiens, UniProt P00748); assay: Inhibition of factor 12a (unknown origin)
T2 sequence (P00748 whole entry): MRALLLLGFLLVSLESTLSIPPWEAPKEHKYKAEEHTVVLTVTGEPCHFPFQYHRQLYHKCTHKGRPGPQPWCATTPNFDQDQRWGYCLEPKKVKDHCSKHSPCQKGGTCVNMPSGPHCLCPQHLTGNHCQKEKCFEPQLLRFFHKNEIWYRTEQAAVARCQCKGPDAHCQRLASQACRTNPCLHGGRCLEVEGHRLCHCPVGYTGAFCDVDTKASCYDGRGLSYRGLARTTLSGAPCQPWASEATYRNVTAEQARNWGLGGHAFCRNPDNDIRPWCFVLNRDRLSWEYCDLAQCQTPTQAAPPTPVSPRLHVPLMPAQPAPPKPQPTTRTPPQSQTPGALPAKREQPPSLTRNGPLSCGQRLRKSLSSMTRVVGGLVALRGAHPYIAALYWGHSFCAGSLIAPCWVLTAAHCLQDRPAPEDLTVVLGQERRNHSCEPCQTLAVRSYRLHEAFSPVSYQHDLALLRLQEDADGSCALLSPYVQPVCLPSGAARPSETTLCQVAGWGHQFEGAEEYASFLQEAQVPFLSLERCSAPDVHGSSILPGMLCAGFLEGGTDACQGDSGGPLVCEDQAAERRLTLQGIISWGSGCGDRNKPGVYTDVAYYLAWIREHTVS

[5] = target: T3, Coagulation factor VII (Homo sapiens, UniProt P08709); assay: (§1) Inhibition of factor 7a (unknown origin)
T3 sequence (P08709 whole entry): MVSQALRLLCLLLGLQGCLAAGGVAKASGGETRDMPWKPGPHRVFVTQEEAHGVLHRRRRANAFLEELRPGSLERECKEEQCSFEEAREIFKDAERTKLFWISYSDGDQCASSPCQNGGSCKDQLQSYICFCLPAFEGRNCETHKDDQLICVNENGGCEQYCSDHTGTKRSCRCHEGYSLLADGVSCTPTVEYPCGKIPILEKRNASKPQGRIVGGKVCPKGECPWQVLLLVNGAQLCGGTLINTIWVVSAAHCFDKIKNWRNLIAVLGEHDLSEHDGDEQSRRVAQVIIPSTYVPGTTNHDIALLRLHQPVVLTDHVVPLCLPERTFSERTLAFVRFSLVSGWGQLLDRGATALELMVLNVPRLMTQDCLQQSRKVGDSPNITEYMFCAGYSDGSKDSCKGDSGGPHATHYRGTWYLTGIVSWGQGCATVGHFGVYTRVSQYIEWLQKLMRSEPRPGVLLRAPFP

[6] = target: Coagulation factor IX (Homo sapiens, UniProt P00740); assay: Inhibition of factor 9a (unknown origin)
[7] = target: Trypsin (Homo sapiens, UniProt P07477+P07478+P35030); assay: Inhibition of trypsin (unknown origin); type: protein assay
[8] = target: T1, Coagulation factor XI; assay: Inhibition of factor 11a (unknown origin) at 10 uM relative to control
[9] = target: T4, Coagulation factor VII (Homo sapiens) (UniProt P08709); assay: as §1
T4 sequence (whole entry): T3 sequence (P08709 whole entry)

Coagulation factor IX, sequence (P00740 47-191 limits assumed): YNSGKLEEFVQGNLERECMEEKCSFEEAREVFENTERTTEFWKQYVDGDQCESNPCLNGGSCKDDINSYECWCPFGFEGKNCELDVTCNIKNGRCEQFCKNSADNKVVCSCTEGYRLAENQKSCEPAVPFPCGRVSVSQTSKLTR
Coagulation factor IX, sequence (P00740 227-461 limits assumed): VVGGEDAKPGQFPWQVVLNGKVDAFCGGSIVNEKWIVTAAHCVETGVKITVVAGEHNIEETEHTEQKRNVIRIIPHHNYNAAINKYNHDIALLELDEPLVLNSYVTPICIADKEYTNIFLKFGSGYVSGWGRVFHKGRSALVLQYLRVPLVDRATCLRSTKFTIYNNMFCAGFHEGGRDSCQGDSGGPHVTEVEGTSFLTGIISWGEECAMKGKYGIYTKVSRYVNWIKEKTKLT
Coagulation factor X, sequence (P00742 41-179 limits assumed): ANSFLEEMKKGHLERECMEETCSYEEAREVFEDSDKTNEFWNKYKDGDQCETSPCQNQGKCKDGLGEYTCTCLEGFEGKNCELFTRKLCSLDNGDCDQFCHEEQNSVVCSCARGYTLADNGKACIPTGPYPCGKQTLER
Coagulation factor X, sequence (P00742 235-488 limits assumed): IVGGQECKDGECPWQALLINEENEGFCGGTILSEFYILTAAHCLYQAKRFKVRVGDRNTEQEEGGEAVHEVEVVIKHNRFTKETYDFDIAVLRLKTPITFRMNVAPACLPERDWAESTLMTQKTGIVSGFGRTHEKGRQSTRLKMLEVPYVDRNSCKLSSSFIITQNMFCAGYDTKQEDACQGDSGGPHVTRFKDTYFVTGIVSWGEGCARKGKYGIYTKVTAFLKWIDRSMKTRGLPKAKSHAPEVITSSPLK
T1 sequence (P03951 19-387 limits assumed): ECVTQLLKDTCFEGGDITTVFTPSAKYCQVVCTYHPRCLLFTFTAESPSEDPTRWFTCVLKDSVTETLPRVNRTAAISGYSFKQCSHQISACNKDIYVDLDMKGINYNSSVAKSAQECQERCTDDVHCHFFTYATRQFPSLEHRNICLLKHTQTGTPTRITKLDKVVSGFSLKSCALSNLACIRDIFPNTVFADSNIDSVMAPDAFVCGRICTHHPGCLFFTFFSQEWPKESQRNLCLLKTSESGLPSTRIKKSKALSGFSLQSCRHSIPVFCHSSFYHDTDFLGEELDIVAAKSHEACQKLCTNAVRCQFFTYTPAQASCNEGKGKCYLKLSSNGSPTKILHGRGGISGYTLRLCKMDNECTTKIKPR
T1 sequence (P03951 388-625 limits assumed): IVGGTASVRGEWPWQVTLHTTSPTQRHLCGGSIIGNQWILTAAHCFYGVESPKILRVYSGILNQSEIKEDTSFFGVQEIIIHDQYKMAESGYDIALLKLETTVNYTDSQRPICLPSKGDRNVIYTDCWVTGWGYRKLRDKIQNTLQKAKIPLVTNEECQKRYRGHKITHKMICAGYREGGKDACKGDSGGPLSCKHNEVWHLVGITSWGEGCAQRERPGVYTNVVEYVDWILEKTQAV

Structure (SMILES)	IC50 [1]	IC50 [2]	other results
O=C(NCc1cc(Cl)ccc1-n1cnnn1)[C@@H]1CCCN1C(=O)[C@@H](CC1CCCCC1)NC1CCCCC1	> 30 µM	–	–
CC[C@@H](C)[C@@H](NC1CCCCC1)C(=O)N1C[C@@H](O)C[C@H]1C(=O)NCc1ccc2c(N)nccc2c1	0.021 µM	0.309 µM	IC50 [3]: 0.136 µM; IC50 [4]: 0.341 µM; IC50 [5]: 0.993 µM; IC50 [6]: 8.33 µM; IC50 [7]: 0.824 µM
CC[C@@H](C)[C@@H](NS(=O)(=O)Cc1ccc(Cl)cc1)C(=O)N1C[C@@](C)(O)C[C@H]1C(=O)NCc1ccc2c(N)nccc2c1	0.015 µM	0.37 µM	IC50 [3]: 0.078 µM; IC50 [4]: > 30 µM; IC50 [5]: 2.02 µM; IC50 [6]: > 20 µM; IC50 [7]: 2.02 µM
Nc1ncnc2cc(CNC(=O)[C@@H]3CCCN3C(=O)[C@@H](CC3CCCCC3)NC3CCCCC3)ccc12	–	–	inhibition [8]: 10%
CC[C@@H](C)[C@@H](NC1CCCCC1)C(=O)N1C[C@](O)(CC)C[C@H]1C(=O)NCc1ccc2c(N)nccc2c1	0.022 µM	0.092 µM	IC50 [3]: 0.093 µM; IC50 [4]: 0.426 µM; IC50 [5]: 0.646 µM; IC50 [6]: > 10 µM; IC50 [7]: 0.41 µM
Nc1nccc2cc(CNC(=O)[C@@H]3CCCN3C(=O)[C@@H](CC3CCCCC3)NC3CCCCC3)ccc12	0.16 µM	0.001 µM	inhibition [3]: Active; inhibition [9]: Active; inhibition [6]: Active
CC[C@@H](C)[C@@H](NS(=O)(=O)Cc1ccc(C(F)(F)F)cc1)C(=O)N1C[C@@](C)(O)C[C@H]1C(=O)NCc1ccc2c(N)nccc2c1	0.046 µM	0.521 µM	IC50 [3]: 0.328 µM; IC50 [4]: > 30 µM; IC50 [5]: 2.78 µM; IC50 [6]: > 30 µM; IC50 [7]: 2.912 µM
CC[C@@H](C)[C@@H](NC(C)C(F)F)C(=O)N1C[C@@](C)(O)C[C@H]1C(=O)NCc1ccc2c(N)nccc2c1 (stereo partly specified)	0.077 µM	3.63 µM	IC50 [3]: 0.798 µM; IC50 [4]: > 10 µM; IC50 [5]: 2.76 µM; IC50 [6]: > 10 µM; IC50 [7]: 4.034 µM
CC(C)C[C@@H](NC1CCCCC1)C(=O)N1C[C@@H](C(F)(F)F)C[C@H]1C(=O)NCc1ccc2c(N)nccc2c1	0.076 µM	> 5 µM	–
Nc1ncnc2oc(CNC(=O)[C@@H]3CCCN3C(=O)[C@@H](CC3CCCCC3)NC3CCCCC3)cc12	–	–	inhibition [8]: 8%
CCS(=O)(=O)N[C@H](CC(C)C)C(=O)N1CCC[C@H]1C(=O)NCc1ccc2c(N)nccc2c1	0.794 µM	0.024 µM	–
CC(C)C[C@@H](NC(C)C(F)F)C(=O)N1CCC[C@H]1C(=O)NCc1ccc2c(N)nccc2c1 (stereo partly specified)	0.339 µM	0.095 µM	–
CC(C)CN[C@H](CC(C)C)C(=O)N1CCC[C@H]1C(=O)NCc1ccc2c(N)nccc2c1	2.69 µM	0.037 µM	–
Cc1cc2cc(CNC(=O)[C@@H]3CCCN3C(=O)[C@@H](CC3CCCCC3)NC3CCCCC3)ccc2c(N)n1	–	–	inhibition [8]: 61%
Nc1nccc2cc(CNC(=O)[C@@H]3CCCN3C(=O)[C@H](NC3CCCCC3)C3CCOCC3)ccc12	0.224 µM	0.002 µM	–
CC[C@@H](C)[C@@H](NS(=O)(=O)Cc1ccc(Cl)cc1)C(=O)N1C[C@@](C)(C#N)C[C@H]1C(=O)NCc1ccc2c(N)nccc2c1	0.01 µM	0.043 µM	IC50 [3]: 0.829 µM; IC50 [4]: > 20 µM; IC50 [5]: 0.285 µM; IC50 [6]: > 30 µM; IC50 [7]: 2.526 µM
Nc1nccc2cc(CNC(=O)[C@@H]3CCCN3C(=O)[C@H](NC3CCCCC3)C3CCCCC3)ccc12	0.091 µM	0.006 µM	–
CC[C@@H](C)[C@@H](NC1CCCCC1)C(=O)N1C[C@@](C)(O)C[C@H]1C(=O)NCc1ccc2c(N)nccc2c1	0.012 µM	0.218 µM	IC50 [3]: 0.049 µM; IC50 [4]: 0.241 µM; IC50 [5]: 0.461 µM; IC50 [6]: 7.83 µM; IC50 [7]: 0.547 µM
CC[C@@H](C)[C@@H](NC1CCCCC1)C(=O)N1C[C@@](C)(C#N)C[C@H]1C(=O)NCc1ccc2c(N)nccc2c1	0.028 µM	0.289 µM	IC50 [3]: 2.74 µM; IC50 [4]: 7.29 µM; IC50 [5]: 1.13 µM; IC50 [6]: > 10 µM; IC50 [7]: 3.371 µM
CC[C@@H](C)[C@@H](NC1CCC(F)(F)CC1)C(=O)N1C[C@](O)(CC)C[C@H]1C(=O)NCc1ccc2c(N)nccc2c1	0.088 µM	1.19 µM	IC50 [3]: 0.652 µM; IC50 [4]: > 10 µM; IC50 [5]: 3.8 µM; IC50 [6]: > 30 µM; IC50 [7]: 2.701 µM

The next lines start with results.

IC50 [1]	IC50 [2]	Structure (SMILES)	other results
0.1 µM	1 µM	CC(C)C[C@@H](NC1CCCCC1)C(=O)N1C[C@@H](O)C[C@H]1C(=O)NCc1ccc2c(N)nccc2c1	–
0.016 µM	–	CC[C@@H](C)[C@@H](NC1CCCCC1)C(=O)N1CCC[C@H]1C(=O)NCc1ccc2c(N)nccc2c1	–
0.098 µM	0.006 µM	Nc1nccc2cc(CNC(=O)[C@@H]3CCCN3C(=O)[C@@H](CC3CC3)NC3CCCCC3)ccc12	–
0.417 µM	0.12 µM	CC(C)C[C@@H](NC1CCC(F)(F)CC1)C(=O)N1CCC[C@H]1C(=O)NCc1ccc2c(N)nccc2c1	–
0.138 µM	0.004 µM	CC(C)C[C@@H](NC1CCCCC1)C(=O)N1CCCC[C@H]1C(=O)NCc1ccc2c(N)nccc2c1	–
3.31 µM	0.044 µM	CC(C)C[C@@H](NC1CCC1)C(=O)N1CCC[C@H]1C(=O)NCc1ccc2c(N)nccc2c1	–
0.06 µM	0.005 µM	CC(C)C[C@@H](NC1CCCCC1)C(=O)N1CCC[C@H]1C(=O)NCc1ccc2c(N)nccc2c1	–
0.171 µM	0.009 µM	CCC[C@@H](NC1CCCCC1)C(=O)N1CCC[C@H]1C(=O)NCc1ccc2c(N)nccc2c1	–
1.38 µM	0.038 µM	CC(C)C[C@@H](NC1CCCC1)C(=O)N1CCC[C@H]1C(=O)NCc1ccc2c(N)nccc2c1	–
0.263 µM	> 5 µM	CO[C@H]1C[C@@H](C(=O)NCc2ccc3c(N)nccc3c2)N(C(=O)[C@@H](CC(C)C)NC2CCCCC2)C1	–
0.49 µM	0.174 µM	CC(C)C[C@@H](NC1CCC(C(F)(F)F)CC1)C(=O)N1CCC[C@H]1C(=O)NCc1ccc2c(N)nccc2c1 (stereo partly specified)	–
0.347 µM	–	CC[C@H](C)[C@@H](NC1CCCCC1)C(=O)N1CCC[C@H]1C(=O)NCc1ccc2c(N)nccc2c1	–
0.234 µM	0.007 µM	CC(C)[C@@H](NC1CCCCC1)C(=O)N1CCC[C@H]1C(=O)NCc1ccc2c(N)nccc2c1	–
0.437 µM	> 5 µM	CC(C)C[C@@H](NC1CCCCC1)C(=O)N1C[C@@H](F)C[C@H]1C(=O)NCc1ccc2c(N)nccc2c1	–
1.1 µM	0.003 µM	CC(C)C[C@@H](NC1CCCCC1)C(=O)N1CC[C@H]1C(=O)NCc1ccc2c(N)nccc2c1	–
1.35 µM	0.281 µM	CC(C)C[C@@H](NC1CCOCC1)C(=O)N1CCC[C@H]1C(=O)NCc1ccc2c(N)nccc2c1	–
2.34 µM	–	CC(C)C[C@@H](NC1CCCCC1)C(=O)N1C[C@@H](C)C[C@H]1C(=O)NCc1ccc2c(N)nccc2c1	–
0.049 µM	–	CC(C)C[C@@H](NC1CCCCC1)C(=O)N1C[C@@](C)(O)C[C@H]1C(=O)NCc1ccc2c(N)nccc2c1	–
